Measured values taken from PMC2902621 (Archives of biochemistry and biophysics, 2010).
pKd: −log10 of the molar value.

Target: cytochrome c peroxidase (CcP) (Saccharomyces cerevisiae, UniProt P00431, R115A/T120I/D219G/W258F)
Experiment: UV-visible optical titration of ferric enzyme
Type: binding

Chain of cytochrome c peroxidase (CcP) (P00431 68-361 R115A/T120I/D219G/W258F): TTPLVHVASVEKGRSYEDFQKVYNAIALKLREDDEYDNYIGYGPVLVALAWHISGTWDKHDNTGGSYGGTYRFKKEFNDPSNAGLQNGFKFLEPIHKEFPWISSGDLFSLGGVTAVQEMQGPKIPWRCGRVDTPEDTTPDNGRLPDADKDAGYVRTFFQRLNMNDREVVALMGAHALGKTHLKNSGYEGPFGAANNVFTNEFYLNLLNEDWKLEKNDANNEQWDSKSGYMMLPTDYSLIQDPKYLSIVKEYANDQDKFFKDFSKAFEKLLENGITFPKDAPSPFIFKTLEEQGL

Question: How did the pKd turn out when `N=C(N)NO` [NHG, N-hydroxyguanidine] was run?
Answer: The pKd was 2.47.
